Experimental data published in US6344451B1, “Pyrrolobenzodiazepine carboxyamide vasopressin agonists” (American Home Products, priority 1999, dated 2002).

Molecular target: T1, Vasopressin V2 (Rattus norvegicus, UniProt Q00788)
T1 construct: Male or female normotensive Sprague-Dawley rats; from tissue; host or cells: whole living Sprague-Dawley rat (V2 receptors of the kidney collecting ducts)
Assay: Vasopressin V2 agonist effects of test compounds in normal conscious water-loaded rats
Type: in vivo
Conditions: oral dose of 10 mg/Kg, urine collected for four hours, Sprague-Dawley (CD) rats; for Changes in Urinary Osmolality: osmolality changes expressed as percent of control; for Urine Volume (% decrease): percent decrease in urine volume vs. control
Excerpt: Vasopressin V2 Agonist Effects of Test Compounds in Normal Conscious Water-Loaded Rats:
Male or female normotensive Sprague-Dawley rats (Charles River Laboratories, Inc., Kingston, N.Y.) of 350-500 g body weight were supplied with standard rodent diet (Purina Rodent Lab. Chow 5001) and water ad libitum. On the day of test, rats were placed individually into metabolic cages equipped with devices to separate the feces from the urine and containers for collection of urine. A test compound or a reference agent was given at an oral dose of 10 mg/Kg in a volume of 10 mL/Kg. The vehicle used was 20% dimethylsulfoxide (DMSO) in 2.5% preboiled corn starch. Thirty minutes after dosing the test compound, rats were gavaged with water at 30 mL/Kg into the stomach using a feeding needle. During the test, rats were not provided with water or food. Urine was collected for four hours after dosing of the test compound. At the end of four hours, urine volume was measured. Urinary osmolality was determined using a Fiske One-Ten Osmometer (Fiske Associates, Norwood, Mass., 02062) or an Advanced CRYOMATIC Osmometer, Model 3C2 (Advanced Instruments, Norwood, Mass.). Determinations of Na^+, K^+ and Cl^− ion were carried out using ion specific electrodes in a Beckman SYNCHRON EL-ISE Electrolyte System analyzer. The urinary osmolality should increase proportionally. In the screening test, two rats were used for each compound. If the difference in the urine volume of the two rats was greater than 50%, a third rat was used.

T1 sequence (Q00788 whole entry): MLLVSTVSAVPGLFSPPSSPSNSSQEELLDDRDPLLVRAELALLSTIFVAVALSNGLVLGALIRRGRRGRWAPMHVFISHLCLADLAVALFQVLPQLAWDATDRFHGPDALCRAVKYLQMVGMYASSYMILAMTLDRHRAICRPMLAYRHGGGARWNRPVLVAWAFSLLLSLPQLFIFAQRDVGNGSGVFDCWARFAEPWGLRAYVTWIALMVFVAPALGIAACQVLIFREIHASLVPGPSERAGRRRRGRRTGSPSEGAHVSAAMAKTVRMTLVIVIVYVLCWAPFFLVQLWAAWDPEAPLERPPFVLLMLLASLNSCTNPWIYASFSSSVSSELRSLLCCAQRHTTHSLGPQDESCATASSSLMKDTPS

Cn1ccc2cc(C(=O)N3Cc4cccn4Cc4ccccc43)ccc21 [Example 1, (5H-10,11-Dihydro-pyrrolo [2,1-c][1,4]benzodiazepin-10-yl)-(1-methyl-1H-indol-5-yl)-methanone]
Changes in Urinary Osmolality: 174% of control | Urine Volume (% decrease): 66 % decrease

O=C(c1ccc2c(c1)OCO2)N1Cc2cccn2Cc2ccccc21 [Example 2, Benzo[1,3]dioxol-5-yl-(5H-10,11-dihydro-pyrrolo [2,1-c][1,4]benzodiazepin-10-yl)-methanone]
Changes in Urinary Osmolality: 41% of control | Urine Volume (% decrease): 23 % decrease

O=C(c1ccc2ncsc2c1)N1Cc2cccn2Cc2ccccc21 [Example 4, (Benzothiazol-6-yl)-(5H-10,11-dihydro-pyrrolo[2,1-c][1,4]benzodiazepin-10-yl)-methanone]
Changes in Urinary Osmolality: 3% of control | Urine Volume (% decrease): 19 % decrease

O=C(c1ccc2c(c1)CCO2)N1Cc2cccn2Cc2ccccc21 [Example 3, (2,3-Dihvdro-benzofuran-5-yl)-(5H-10.11-dihydro-pyrrolo [2,1-c][1,4]benzodiazepin-10-yl)-methanone]
Changes in Urinary Osmolality: 10% of control | Urine Volume (% decrease): 32 % decrease
